Assay results taken from patent US8466134B1, “Aqueous compositions containing corticosteroids for nasal and pulmonary delivery” (Athena Neurosciences, Inc., priority 1998, dated 2013).

Test: Storage stability of budesonide formulations, % recovery (Examples 6 and 8)
Type: physicochemical
Details: pH between about 3 and about 8, more preferably about 3.5 to about 6
Protocol: After dilution all samples were sterilized by filtering them through a 0.2 μm Millipore sterile filters and placed in sterile low density polyethylene plastic vials. These formulations were kept in humidity and temperature controlled chambers at 5° C. 25° C./60% RH and 40° C./75% RH (where RH is the relative humidity). The % recovery after 13.5 weeks from time zero is presented for each formulation and storage condition, in the following table: […]
The formulations described in Examples 6 and 7 were also prepared using lower buffer concentrations of 10 mM, 5 mM, and 1 mM with similar stability results.

stability of aqueous compositions at lower pH ranges: superior stability
Structure (SMILES): CCCC1O[C@@H]2C[C@H]3[C@@H]4CCC5=CC(=O)C=C[C@]5(C)[C@H]4[C@@H](O)C[C@]3(C)[C@]2(C(=O)CO)O1 (stereo partly shown) [Budesonide, budesonide]
